Data reported in PMC5412877, “Discovery of a PCAF Bromodomain Chemical Probe” (Angewandte Chemie (International Ed. in English), 2016).
“And” between values parts separate entries of the source, which are not always exact repeats. Equal entries are not always repeated. Where two headings read alike, the source gives them in different places.

What was measured:
Assay type in all cases: binding
[1] = target: T1, PCAF Brd (Homo sapiens, UniProt Q92831); test: Differential scanning fluorimetry (DSF), PCAF Brd; details: compound concentration 10 μM
T1 construct: Human bromodomains were cloned, expressed and purified as previously described; made in house
T1 sequence (Q92831 723-827 limits assumed): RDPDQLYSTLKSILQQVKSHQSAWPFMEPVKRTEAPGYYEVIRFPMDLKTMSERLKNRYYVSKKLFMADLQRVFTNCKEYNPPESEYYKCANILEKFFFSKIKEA
Description: (§1) Protein Expression and Purification
(§2) Human bromodomains were cloned, expressed and purified as previously described.[1]
(§3) Differential Scanning Fluorimetry (DSF)
(§4) Thermal melting points were recorded using an Mx3005p Real Time PCR Machine (Stratagene).
(§5) Subject proteins were buffered in 10 mM HEPES at pH 7.5, 500 mM NaCl and assayed in a 96-well […]
(§6) plate at a final concentration of 2 μM in 20 μL volume. Compounds were then added to a final […]
(§7) concentration of 10 μM. SPYRO Orange (Molecular Probes) was used as a fluorescent probe at a […]
(§8) dilution of 1:1000. Excitation and emission filters for the SPYRO-Orange dye were set to 465 nm and […]
(§9) 590 nm, respectively. The temperature was raised with a step of 3 °C/min from 25 °C to 96 °C and […]
(§10) fluorescence readings were taken at each interval. Data was analysed as previously described.[2]
(§11) Bromodomain affinity selectivity panel of (S)-11
(§12) Supplemental Figure 1. DSF Selectivity panel of (S)-11 against 48 human Bromodomains. […]
(§13) ┼Mean ΔTm ± SEM (number of measurements= 2). Compound concentration: 10 μM […]
(§14) (1 picture or pasted object on this page, not shown here)

[2] = target: T2, GCN5L2 (Homo sapiens, UniProt Q92830); test: Differential scanning fluorimetry (DSF), GCN5 (GCN5L2) Brd; details: compound 10 μM; for ΔTm at 10 µM: read-out: GCN5L2 ΔTm (°C) (DSF)
T2 construct: made in house
T2 sequence (Q92830 728-832 limits assumed): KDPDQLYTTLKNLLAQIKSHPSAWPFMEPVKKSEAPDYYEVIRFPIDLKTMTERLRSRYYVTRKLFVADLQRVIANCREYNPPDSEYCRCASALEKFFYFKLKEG
Description: as §1, §2, §3, §4, §5, §6, §7, §8, §9, §10, §11, §12, §13, §14

[3] = target: T1, PCAF Brd; test: Isothermal titration calorimetry (ITC), PCAF Brd
Description: Isothermal Titration Calorimetry (ITC)
Experiments were carried out on a Nano-ITC Standard Volume Instrument (TA Instruments). All experiments were carried out at 25 °C in 20 mM HEPES pH 7.5, 150 mM NaCl, 0.5 mM TCEP and 5% glycerol. Protein solutions were buffer exchanged by gel filtration. The titrations were conducted using an initial injection of 2 μL followed by 32 injections of 8 μL. Background dilution heat was substracted from each experiment. Thermodynamic parameters were calculated using ΔG = ΔH-T ΔS = -RTlnKB , where KD = 1/KB. ΔG, ΔH and ΔS are changes in free energy, enathalpy and entropy resepectively. Independent single site binding models were employed in data analysis.
Supplemental Figure 3. ITC trace of D-Moses and PCAF Brd […]

[4] = Supplemental Table 3, compound concentration 30 μM, protein concentration 280-320 μM, read-out: PCAF KD (μM) (ITC)
[5] = Table 1, read-out: K D [μM] (ITC) PCAF Brd
[6] = Table 2, read-out: K D (nM) (ITC) PCAF Brd

Row | SMILES | ΔT m [°C] PCAF (DSF) [1] | GCN5L2 ΔTm (°C) (DSF) [2] | Kd [3, 4] | Kd [3, 5] | ΔTm at 10 µM [2] | Kd [3, 6] | ΔT m [°C] PCAF (DSF) ([1]; listed as (S)-17)
1 | Cc1nnc2c3ccccc3c(N3CCN4CCCCC4C3)nn12 (stereo not shown) [Compound 73] | 0.5 °C | 0.2 °C | > 30 µM |  |  |  | 
2 | Cc1nnc2c3ccccc3c(NCC(c3ccccc3)N(C)C)nn12 (stereo not shown) [Compound 10] | 1.7 °C |  |  | 1 µM |  |  | 
3 | Cc1nnc2c3ccccc3c(NCC3CCCOC3)nn12 (stereo not shown) [Compound 99] | 3.8 °C |  |  |  | 1.5 °C |  | 
4 | Cc1nnc2c3ccccc3c(NC3CCCN(C)C3=O)nn12 (stereo not shown) [Compound 50] | 1.1 °C |  |  |  | 0.1 °C |  | 
5 | CN(C)[C@H]1CCC[C@@H]1Nc1nn2c(C(F)(F)F)nnc2c2ccccc12 [Compound 84] | 0.7 °C |  | > 30 µM |  | 0.2 °C |  | 
6 | Cc1nnc2c3ccccc3c(N[C@H]3CCCC[C@@H]3N(C)C)nn12 [Compound 66] | 0.6 °C | 0.1 °C | > 30 µM |  |  |  | 
7 | Cc1nnc2c3ccccc3c(N3CCN(CCN4CCCCC4)CC3)nn12 [Compound 62] | 0.2 °C |  | > 30 µM |  | 0.3 °C |  | 
8 | Cc1nnc2c3ccccc3c(N[C@@H](C)[C@H](c3ccc(C(F)(F)F)cc3)N(C)C)nn12 (relative stereo) [Compound 43] | 9.1 °C |  |  |  | 7.2 °C | 0.163 ± 0.117 µM | 
9 | Cc1nnc2c3ccccc3c(N[C@@H]3CCCN(Cc4ccccc4)C3)nn12 [Compound 64] | 1.1 °C | 0.5 °C | > 30 µM |  |  |  | 
10 | CN(C)CCNc1nn2c(C(F)(F)F)nnc2c2ccccc12 [Compound 87] |  |  | > 30 µM |  |  |  | 
11 | CC(=O)O.Cc1nnc2c3ccccc3c(NCCN3CCCC3)nn12 [Compound 59] | 3.7 °C | 0.7 °C | 4.3 µM |  |  |  | 
12 | Cc1nnc2c3ccccc3c(NCCCN(C)C)nn12 [Compound 8] |  |  |  | > 30 µM |  |  | 
13 | Cc1nnc2c3ccccc3c(N[C@@H](C)[C@H](O)c3ccccc3)nn12 [Compound 77] | 0.3 °C |  |  |  | 0.2 °C |  | 
14 | Cc1nnc2c3ccccc3c(NC(C)CN(C)C)nn12 (stereo not shown) [Compound 11] | 5.6 °C |  | 0.298 µM | 0.3 ± 0.039 µM | 2.5 °C |  | 
15 | CC(C)CC(CN(C)C)Nc1nn2c(C(F)(F)F)nnc2c2ccccc12 (stereo not shown) [Compound 86] | 0.02 °C | 0.2 °C | > 30 µM |  |  |  | 
16 | Cc1nnc2c3ccccc3c(NC(C)CN3CCC(C)CC3)nn12 (stereo not shown) [Compound 70] | 0 °C |  | > 30 µM |  | 0.1 °C |  | 
17 | CCC(CN(C)C)Nc1nn2c(C)nnc2c2ccccc12 (stereo not shown) [Compound 12] | 3.3 °C |  | 1.76 µM | 1.8 ± 0.23 µM | 1.1 °C |  | 
18 | CCN1CCCCC1CNc1nn2c(C)nnc2c2ccccc12 (stereo not shown) [Compound 63] | 0.2 °C |  |  |  | 0 °C |  | 
19 | Cc1nnc2c3ccccc3c(NC(CC(C)C)CN(C)C)nn12 (stereo not shown) [Compound 13] | 0.9 °C and 0.85 °C |  |  | > 30 µM | 1.1 °C |  | 
20 | Cc1nnc2c3ccccc3c(N[C@@H](C)[C@H](c3ccc(Cl)cc3)N(C)C)nn12 [Compound 42] | 6.2 °C |  |  |  | 2.7 °C | 0.223 ± 0.078 µM | 
21 | Cc1nnc2c3ccccc3c(NC(C)c3ccccn3)nn12 (stereo not shown) [Compound 71] |  |  | 2.3 µM |  |  |  | 
22 | Cc1nnc2c3ccccc3c(N[C@H]3C[C@@H]4CC[C@H]3C4)nn12 [Compound 61] | 0.5 °C | 0 °C |  |  |  |  | 
23 | Cc1nnc2c3ccccc3c(NCCN3CCOCC3)nn12 [Compound 98] | 0.7 °C |  |  |  | 0.2 °C |  | 
24 | Cc1nnc2c3ccccc3c(NCC(=O)c3ccccc3)nn12 [Compound 81] | 1.0 °C | 0.3 °C |  |  |  |  | 
25 | CN(C)[C@H]1CCCC[C@@H]1Nc1nn2c(C(F)(F)F)nnc2c2ccccc12 [Compound 83] | 0.8 °C |  | > 30 µM |  | 0 °C |  | 

Row | SMILES | ΔT m [°C] PCAF (DSF) [1] | GCN5L2 ΔTm (°C) (DSF) [2] | Kd [3, 4] | Kd [3, 5] | ΔTm at 10 µM [2] | Kd [3, 6] | ΔT m [°C] PCAF (DSF) ([1]; listed as (S)-17)
26 | CCN1CCCC1CNc1nn2c(C(F)(F)F)nnc2c2ccccc12 (stereo not shown) [Compound 91] | 0.1 °C |  | > 30 µM |  | 0.1 °C |  | 
27 | CCN(CC)CC(C)Nc1nn2c(C)nnc2c2ccccc12 (stereo not shown) [Compound 14] | 0 °C |  |  | > 30 µM | 0 °C |  | 
28 | CCN(CC)CC(C)Nc1nn2c(C(F)(F)F)nnc2c2ccccc12 (stereo not shown) [Compound 90] | 0.4 °C | 0.1 °C | > 30 µM |  |  |  | 
29 | Cc1nnc2c3ccccc3c(NC(CO)c3ccccc3)nn12 (stereo not shown) [Compound 51] | 1.0 °C |  |  |  | 0 °C |  | 
30 | Cc1nnc2c3ccccc3c(NCC3COCCN3C)nn12 (stereo not shown) [Compound 58] | 2.7 °C |  |  |  | 0.4 °C |  | 
31 | Cc1nnc2c3ccccc3c(NCC3CCCN3C)nn12 (stereo not shown) [Compound 97] | 2.8 °C | 0.9 °C | 18.2 µM |  |  |  | 
32 | Cc1nnc2c3ccccc3c(NCCCCN(C)C)nn12 [Compound 9] | 0.9 °C |  |  | > 30 µM | 0.3 °C |  | 
33 | Cc1nnc2c3ccccc3c(N[C@@H]3CCC[C@H]3N(C)C)nn12 [Compound 67] | 0.7 °C |  | 0.321 µM |  | 0.3 °C |  | 
34 | Cc1nnc2c3ccccc3c(N[C@@H]3CCCN(C(=O)OCc4ccccc4)C3)nn12 [Compound 65] |  |  | > 30 µM |  |  |  | 
35 | FC(F)(F)c1nnc2c3ccccc3c(NCc3ccccc3)nn12 [Compound 85] | 3.7 °C |  | > 30 µM |  | 0.9 °C |  | 
36 | CCC(CNc1nn2c(C)nnc2c2ccccc12)N(C)C (stereo not shown) [Compound 16] |  |  |  | 6.9 ± 1.4 µM |  |  | 
37 | Cc1nnc2c3ccccc3c(NCCN3CCN(C)CC3)nn12 [Compound 69] | 0.9 °C |  | > 30 µM |  | 0 °C |  | 
38 | Cc1ccc([C@@H]([C@H](C)Nc2nn3c(C)nnc3c3ccccc23)N(C)C)cc1 (relative stereo) [Compound 41] | 7.8 °C |  |  |  | 4.3 °C | 0.16 ± 0.054 µM | 
39 | Cc1nnc2c3ccccc3c(N3CCCC(N(C)C)C3)nn12 (stereo not shown) [Compound 75] | 0.4 °C |  | > 30 µM |  | 0.2 °C |  | 
40 | CCC(CN(C)C)Nc1nn2c(C(F)(F)F)nnc2c2ccccc12 (stereo not shown) [Compound 88] | 0.4 °C | 0.1 °C | > 30 µM |  |  |  | 
41 | Cc1nnc2c3ccccc3c(NCC3CCCCN3C)nn12 (stereo not shown) [Compound 60] | 2.9 °C |  | 1.13 µM |  | 1.1 °C |  | 
42 | C[C@@H](CN(C)C)Nc1nn2c(C(F)(F)F)nnc2c2ccccc12 [Compound (S)‐17] | 0.65 °C |  |  | > 30 µM | 0.2 °C |  | 0.7 °C
43 | Cc1nnc2c3ccccc3c(NCC(C)N(C)C)nn12 (stereo not shown) [Compound 15] | 4.6 °C |  |  | 7.3 ± 1.1 µM | 1 °C |  | 
44 | Cc1nnc2c3ccccc3c(Cl)nn12 [Compound 94] | 0 °C |  |  |  | 0.2 °C |  | 
45 | Cc1nnc2c3ccccc3c(N[C@H]3CCCN(Cc4ccccc4)C3)nn12 [Compound 56] | 0.6 °C |  | > 30 µM |  | 0.1 °C |  | 
46 | Cc1nnc2c3ccccc3c(NC(C)c3cnccn3)nn12 (stereo not shown) [Compound 72] |  |  | > 30 µM |  |  |  | 
47 | COc1ccc([C@@H]([C@H](C)Nc2nn3c(C)nnc3c3ccccc23)N(C)C)cc1 [Compound 44] | 10.3 °C |  |  |  | 6.8 °C | 0.179 ± 0.048 µM | 
48 | COc1cccc(N2CC(Nc3nn4c(C)nnc4c4ccccc34)CC2=O)c1 (stereo not shown) [Compound 57] | 0.4 °C | 0.1 °C | > 30 µM |  |  |  | 
49 | COC(=O)c1ccc([C@@H]([C@H](C)Nc2nn3c(C)nnc3c3ccccc23)N(C)C)cc1 [Compound 40] | 9.6 °C |  |  |  | 6.3 °C | 0.133 ± 0.015 µM | 
50 | CCC(CNc1nn2c(C(F)(F)F)nnc2c2ccccc12)N(C)C (stereo not shown) [Compound 89] | 0.4 °C | 0.2 °C | > 30 µM |  |  |  | 
